The results in this text go back to publication PMC11821258 (Molecules, 2025).

The term IC50 denotes the concentration that gives 50% inhibition.

One test relates to human biphenotypic B myelomonocytic leukemia MV4-11. The test is described as follows: Antiproliferative activity, MTT assay, 72 h. Type of test: cell-based. The settings on record: Homo sapiens; MV4-11, 72 h, MTT; read-out: IC50. The procedure:
(§1) The tested compounds were dissolved in DMSO (dimethyl sulfoxide) to a concentration of 10 mg/mL and then were diluted in the culture medium to reach the final concentrations. The cells were plated in 384-well plates at a density of 1 × 10^3 or 2 × 10^3 (MCF-10A) cells per well (Greiner Bio One, Kremsmünster, Austria) and in 96-well plates (MV4-11 cell; Sarstedt, Nümbrecht, Germany) at a density of 5 × 10^3 cells per well. After 24 h of incubation, the tested compounds were added at concentrations in the range of 100–0.03 µg/mL and, after the next 72 h of exposure to tested agents, the cytotoxic effect of all agents was examined using the MTT (MV4-11) or SRB assay, described previously. The values of IC50 (inhibitory concentration 50%) were calculated separately for each experiment (repeated 3–5 times) using the Prolab-3 system which is based on Cheburator 0.4 software. Doxorubicin was applied as a reference drug. The IC50 values in µg/mL were calculated to µM.
This assay was used against MV4-11 leukemia cells and was performed after 72 h of exposure of the tested agents to the cells. For each well, 20 µL of the MTT [3-(4,5-dimethylthiazol-2-yl)-2,5-diphenyl tetrazolium bromide] solution (5 mg/mL, Merck, Darmstadt, Germany) was added. After the incubation time (4 h at 37 °C), 80 µL of the lysing buffer was added to each well (mixture of 225 mL of DMF (dimethylformamide) Avantor, Poland; 67.5 g of SDS, Merck, Darmstadt, Germany; and 275 mL of distilled water). After the next 24 h, the absorbance of the samples was measured at a 570 nm wavelength on a Synergy H4 photometer (BioTek Instruments, Winooski, VT, USA). The absorbance of wells without the cells was the background.
Regarding `C#CCCC(=O)OC[C@]12CC[C@@H](C(=C)C)C1C1CCC3[C@@]4(C)CC[C@H](OC(=O)CC(C)(C)CC(=O)O)C(C)(C)C4CC[C@@]3(C)[C@]1(C)CC2` (stereo partly drawn) [Compound 4b], the IC50 was 3.19 ± 1.29 µM.

The test is the same for the next values; noted with them: IC50 MCF-10A / IC50 MV4-11.
Consider `C#CCCC(=O)OC[C@]12CC[C@@H](C(=C)C)C1C1CCC3[C@@]4(C)CC[C@H](OC(=O)CC(C)(C)CC(=O)O)C(C)(C)C4CC[C@@]3(C)[C@]1(C)CC2` (stereo partly drawn) [Compound 4b], for which the SI is 10.20.

Another test relates to human breast cancer MCF-7. The test is described as follows: Antiproliferative activity, SRB assay, 72 h. Type of test: cell-based. Conditions: Homo sapiens, MCF7; MCF-7, 72 h, SRB; read-out: IC50. Here is the method:
as §1
(§2) The cytotoxicity assay was performed after the cultured cells were exposed to the tested agents for 72 h using the authomatic Washer dyspenser EL406, BioTek. At the first step, the washer dispenser collected 40 µL of cultured medium from each wells, and then the cells were fixed by gently layering 20 µL per well of cold 25% trichloroacetic acid to each well. The incubation time was 40 min and then the plates were washed with tap water. The cells were stained with 20 µL per well of 0.1% sulforhodamine B (SRB, Merck, Darmstadt, Germany) for 30 min. Unbound sulforhodamine B was removed by washing it with 1% acetic acid. The protein-bound dye was extracted in 30 min using 70 µL per well of 10 mM unbuffered Tris base (Merck, Darmstadt, Germany). The absorbance (at 540 nm) was measured on a Synergy H4 photometer (BioTek Instruments, Winooski, VT, USA). The absorbance of the wells without the cells was the background.
(In general: Sulforhodamine B stains cellular protein and so reports cell mass.)
For the compound `C#CCCC(=O)OC[C@]12CC[C@@H](C(=C)C)C1C1CCC3[C@@]4(C)CC[C@H](OC(=O)CC(C)(C)CC(=O)O)C(C)(C)C4CC[C@@]3(C)[C@]1(C)CC2` (stereo partly drawn) [Compound 4b], the IC50 came out at 11.7 ± 2.41 µM.

Still in this test, the particulars now being: IC50 MCF-10A / IC50 MCF-7.
For the compound `C#CCCC(=O)OC[C@]12CC[C@@H](C(=C)C)C1C1CCC3[C@@]4(C)CC[C@H](OC(=O)CC(C)(C)CC(=O)O)C(C)(C)C4CC[C@@]3(C)[C@]1(C)CC2` (stereo partly drawn) [Compound 4b], the SI stood at 2.78.

A further test relates to human colon cancer HCT116 cells. Put plainly: Antiproliferative activity, SRB assay, 72 h. It counts as cell-based. Conditions: Homo sapiens, HCT-116; HCT116, 72 h, SRB; read-out: IC50. The procedure: as §1, §2
As for `C#CCCC(=O)OC[C@]12CC[C@@H](C(=C)C)C1C1CCC3[C@@]4(C)CC[C@H](OC(=O)CC(C)(C)CC(=O)O)C(C)(C)C4CC[C@@]3(C)[C@]1(C)CC2` (stereo partly drawn) [Compound 4b], the IC50 is 7.82 ± 2.86 µM.

The test is the same for the next values; noted with them: IC50 MCF-10A / IC50 HCT116.
With `C#CCCC(=O)OC[C@]12CC[C@@H](C(=C)C)C1C1CCC3[C@@]4(C)CC[C@H](OC(=O)CC(C)(C)CC(=O)O)C(C)(C)C4CC[C@@]3(C)[C@]1(C)CC2` (stereo partly drawn) [Compound 4b], the SI worked out at 4.17.

The next test concerns human lung carcinoma A549. The test is described as follows: Antiproliferative activity, SRB assay, 72 h. It counts as cell-based. Conditions: Homo sapiens; A549, 72 h, SRB; read-out: IC50. The procedure:
as §1, §2
For `C#CCCC(=O)OC[C@]12CC[C@@H](C(=C)C)C1C1CCC3[C@@]4(C)CC[C@H](OC(=O)CC(C)(C)CC(=O)O)C(C)(C)C4CC[C@@]3(C)[C@]1(C)CC2` (stereo partly drawn) [Compound 4b], the IC50 was determined as 4.06 ± 1.05 µM.

The same test, now with this note: IC50 MCF-10A / IC50 A549.
As to `C#CCCC(=O)OC[C@]12CC[C@@H](C(=C)C)C1C1CCC3[C@@]4(C)CC[C@H](OC(=O)CC(C)(C)CC(=O)O)C(C)(C)C4CC[C@@]3(C)[C@]1(C)CC2` (stereo partly drawn) [Compound 4b], the SI is 8.04.

For another test, the system named is human melanoma Hs294T cells. The test is described as follows: Antiproliferative activity, SRB assay, 72 h. It counts as cell-based. The settings on record: Homo sapiens, Hs 294T; Hs249T (so in the source), 72 h, SRB; read-out: IC50. Here is the method:
as §1, §2
Take `C#CCCC(=O)OC[C@]12CC[C@@H](C(=C)C)C1C1CCC3[C@@]4(C)CC[C@H](OC(=O)CC(C)(C)CC(=O)O)C(C)(C)C4CC[C@@]3(C)[C@]1(C)CC2` (stereo partly drawn) [Compound 4b]: the IC50 was determined as 10.7 ± 1.5 µM.

Still in this test, the particulars now being: IC50 MCF-10A / IC50 Hs249T (so in the source).
On to `C#CCCC(=O)OC[C@]12CC[C@@H](C(=C)C)C1C1CCC3[C@@]4(C)CC[C@H](OC(=O)CC(C)(C)CC(=O)O)C(C)(C)C4CC[C@@]3(C)[C@]1(C)CC2` (stereo partly drawn) [Compound 4b], for which the SI came to 3.06.

The test system of another test is human pancreas cancer MiaPaca-2 cells. Put plainly: Antiproliferative activity, SRB assay, 72 h. It counts as cell-based. The settings on record: Homo sapiens, MIA PaCa-2; MiaPaca-1 (so in the source), 72 h, SRB; read-out: IC50. The procedure:
as §1, §2
With `C#CCCC(=O)OC[C@]12CC[C@@H](C(=C)C)C1C1CCC3[C@@]4(C)CC[C@H](OC(=O)CC(C)(C)CC(=O)O)C(C)(C)C4CC[C@@]3(C)[C@]1(C)CC2` (stereo partly drawn) [Compound 4b], the IC50 came to 24.5 ± 2.56 µM.

Staying with this test, now noted: IC50 MCF-10A / IC50 MiaPaca-1 (so in the source).
In the case of `C#CCCC(=O)OC[C@]12CC[C@@H](C(=C)C)C1C1CCC3[C@@]4(C)CC[C@H](OC(=O)CC(C)(C)CC(=O)O)C(C)(C)C4CC[C@@]3(C)[C@]1(C)CC2` (stereo partly drawn) [Compound 4b], the SI stood at 1.33.

For the next test, the system named is human prostate adenocarcinoma PC-3. Put plainly: Antiproliferative activity, SRB assay, 72 h. Type of test: cell-based. Conditions: Homo sapiens; PC-3, 72 h, SRB; read-out: IC50. Here is the method:
as §1, §2
For the compound `C#CCCC(=O)OC[C@]12CC[C@@H](C(=C)C)C1C1CCC3[C@@]4(C)CC[C@H](OC(=O)CC(C)(C)CC(=O)O)C(C)(C)C4CC[C@@]3(C)[C@]1(C)CC2` (stereo partly drawn) [Compound 4b], the half-maximal inhibitory concentration (IC50) was 11.6 ± 4.51 µM.

Staying with this test, now noted: IC50 MCF-10A / IC50 PC-3.
`C#CCCC(=O)OC[C@]12CC[C@@H](C(=C)C)C1C1CCC3[C@@]4(C)CC[C@H](OC(=O)CC(C)(C)CC(=O)O)C(C)(C)C4CC[C@@]3(C)[C@]1(C)CC2` (stereo partly drawn) [Compound 4b]: the SI was 2.82.

The test system of a further test is human normal epithelial cells from the mammary gland (MCF-10A). Put plainly: Cytotoxicity on non-tumorigenic cells, SRB assay, 72 h. Type of test: cell-based. Conditions: Homo sapiens, MCF-10A normal cells, SRB, read-out: IC50. Here is the method:
as §1, §2
Consider `C#CCCC(=O)OC[C@]12CC[C@@H](C(=C)C)C1C1CCC3[C@@]4(C)CC[C@H](OC(=O)CC(C)(C)CC(=O)O)C(C)(C)C4CC[C@@]3(C)[C@]1(C)CC2` (stereo partly drawn) [Compound 4b], for which the IC50 was 32.6 ± 2.41 µM.

Another test concerns MV4-11 cells. The test is described as follows: Cell cycle analysis by flow cytometry (propidium iodide). It counts as cell-based, human. The settings on record: MV4-11, 72 h, about 1.5 × IC50. Here is the method:
After incubation, the cells were collected and counted with a hemocytometer, and the 5×10^5 cells were washed twice in cold PBS (phosphate-buffered saline) and fixed for 24 h in 70% ethanol at −20 °C. Then, the cells were washed twice in PBS and incubated with 0.5 mL of RNAse (8 μg/mL, Thermo Fisher, Waltham, MA, USA) at 37 °C for 1 h. The cells were stained for 30 min with propidium iodide (final concentration: 50 μg/mL, Merck, Darmstadt, Germany) at 4 °C and the cellular DNA content was analyzed by conducting flow cytometry using a BD LSRFortessa cytometer (BD Bioscience, San Jose, CA, USA). Compounds at each concentration were tested at least three times independently. The obtained results were analyzed using Flowing software 2.5.1 (Cell Imaging Core, Turku Centre for Biotechnology, University of Turku and Åbo Akademi University, Finland).
As for `C#CCCC(=O)OC[C@]12CC[C@@H](C(=C)C)C1C1CCC3[C@@]4(C)CC[C@H](OC(=O)CC(C)(C)CC(=O)O)C(C)(C)C4CC[C@@]3(C)[C@]1(C)CC2` (stereo partly drawn) [Compound 4b], the “number of death cells” value is reported as “increased”.

The same test, now with this note: MV4-11, 72 h, about 1.5 × IC50, statistically significant.
As for `C#CCCC(=O)OC[C@]12CC[C@@H](C(=C)C)C1C1CCC3[C@@]4(C)CC[C@H](OC(=O)CC(C)(C)CC(=O)O)C(C)(C)C4CC[C@@]3(C)[C@]1(C)CC2` (stereo partly drawn) [Compound 4b], the “number of cells in the G2/M and S phases” value is recorded as “decreased”.

In another test the test system is MV4-11 cells. The test is described as follows: Apoptosis determination via Annexin V and PI staining. Type of test: cell-based, human. Conditions: MV4-11, 72 h, higher concentrations. The procedure: Camptothecin at a concentration of 0.05 uM was used as a positive control. After incubation, the cells were collected and counted with a hemocytometer, and 1×10^5 cells were washed twice with PBS. APC-Annexin V (Becton Dickinson, Pharmingen, Franklin Lakes, NJ, USA) was dissolved to the concentration of […] in a binding buffer (10 mM HEPES/NaOH, pH 7.4; 150 mM NaCl; 5 mM KCl; 1 mM MgCl2; and 1.8 mM CaCl2) (HIIET, Wrocław, Poland), and the cells were suspended in 200 µL of this solution. After 15 min of the incubation in the dark at room temperature, 20 µL of propidium iodide (PI) solution (0.02 mg/mL) was added. Data acquisition was performed by conducting flow cytometry using a BD LSRFortessa cytometer (BD Bioscience, San Jose, CA, USA). The compounds were tested at least three times independently. Results were analyzed using Flowing software 2.5.1 (Turku, Finland). […] Double-negative cells were live cells, PI+/Annexin V+ were late apoptotic cells, PI-/Annexin V+ were early apoptotic cells, and PI+/Annexin V- were necrotic cells.
On to `C#CCCC(=O)OC[C@]12CC[C@@H](C(=C)C)C1C1CCC3[C@@]4(C)CC[C@H](OC(=O)CC(C)(C)CC(=O)O)C(C)(C)C4CC[C@@]3(C)[C@]1(C)CC2` (stereo partly drawn) [Compound 4b], for which the induction of apoptosis result is recorded as “induction of apoptosis was observed”.
